Earlier results on 45 compounds are cited in patent publication US20040121305A1, “Generation of efficacy, toxicity and disease signatures and methods of use thereof” (priority 2002, published 2004).

The conditions of the data set: known toxins to be used for toxicity signature generation; organs known to be targeted.
`Clc1cc(Cl)c(-c2cc(Cl)c(Cl)cc2Cl)cc1Cl` [2,2′,4,4′,5,5′-hexachlorobiphenyl]: the Target organ/organ system entry is on record as “liver”. Regarding `Clc1cc2c(cc1Cl)Oc1cc(Cl)c(Cl)cc1O2` [2,3,7,8-tetrachlorodibenzo-p-dioxin], the Target organ/organ system result is “liver”. Take `NCCBr` [2-bromoethylamine (BEA), 2-bromoethylamine]: the Target organ/organ system result is “kidney”. As for `Cc1ccc2cc3c(ccc4ccccc43)c3c2c1CC3` [3-methylcholanthrene], the Target organ/organ system entry was “liver”. For `Nc1ccc(O)cc1` [4-aminophenol (PAP), 4-aminophenol], the Target organ/organ system result is given as “kidney”. Take `Cc1cccc(Nc2cc(Cl)nc(SCC(=O)O)n2)c1C` [Wy-16,463]: the Target organ/organ system result is “liver”. Turning to `CC(=O)Nc1ccc(O)cc1` [acetaminophen], the Target organ/organ system entry was “kidney”. Turning to `C=CCO` [allyl alcohol], the Target organ/organ system result was “liver”. Consider `C[C@@H]1[C@H](O)[C@@H](C)/C=C/C=C/C=C/C=C/C=C/C=C/C=C/[C@H](O[C@@H]2O[C@H](C)[C@@H](O)[C@H](N)[C@@H]2O)C[C@@H]2O[C@](O)(C[C@@H](O)C[C@@H](O)[C@H](O)CC[C@@H](O)C[C@@H](O)CC(=O)O[C@H]1C)C[C@H](O)[C@H]2C(=O)O` [amphotericin B], for which the Target organ/organ system result was “blood; cardiovascular system; kidney; liver”. Consider `[AsH3]` [arsenic], for which the Target organ/organ system entry was “liver”.

As to `CC(=O)Oc1ccccc1C(=O)O` [aspirin], the Target organ/organ system result was “cardiovascular system; kidney”. Consider `COc1ccc(CCN2CCC(Nc3nc4ccccc4n3Cc3ccc(F)cc3)CC2)cc1` [astemizole], for which the Target organ/organ system entry is listed as “cardiovascular system”. As for `c1ccccc1` [benzene], the Target organ/organ system entry is “blood”. Turning to `[Cd]` [cadmium], the Target organ/organ system entry was “kidney; liver; nervous system; respiratory system”. With `NC(=O)N1c2ccccc2C=Cc2ccccc21` [carbamezipine], the Target organ/organ system entry was “blood; liver; reproductive system”. `CC(C)(Oc1ccc(C2CC2(Cl)Cl)cc1)C(=O)O` (stereo not drawn) [ciprofibrate (cipro), ciprofibrate]: the Target organ/organ system result is “liver”.

As for `CCOC(=O)C(C)(C)Oc1ccc(Cl)cc1` [clofibrate], the Target organ/organ system result is “muscle”. Regarding `[Cl][Co][Cl]` [cobalt chloride], the Target organ/organ system entry is “liver”. In the case of `CCN(CC)N=O` [diethylntrosamine], the Target organ/organ system result was “liver”. Regarding `CNNC` [dimethylhydrazine (DMH), dimethylhydrazine], the Target organ/organ system entry is reported as “liver”.

As for `Cc1ccc(C)c(OCCCC(C)(C)C(=O)O)c1` [gamfibrozil], the Target organ/organ system result is “muscle”. Regarding `Nc1nc(O)c2ncn(COC(CO)CO)c2n1` [ganciclovir], the Target organ/organ system entry is reported as “blood; liver”. Take `ClC(Cl)=C(Cl)C(Cl)=C(Cl)Cl` [hexachloro-1,3-butediene (HCBD), hexachloro-1,3-butediene]: the Target organ/organ system result is recorded as “kidney”. For `NN` [hydrazine], the Target organ/organ system result is recorded as “liver”. Regarding `CC(=O)[O-].CC(=O)[O-].[Pb+2]` [lead acetate (PbAc), lead acetate], the Target organ/organ system entry is “liver, kidney”. `[Cl][Hg][Cl]` [mercury(II) chloride (HgCl2), mercury(II) chloride]: the Target organ/organ system result is “kidney”. In the case of `CN(C)CCN(Cc1cccs1)c1ccccn1` [methapyrilene], the Target organ/organ system result is “liver”. Regarding `CN(Cc1cnc2nc(N)nc(N)c2n1)c1ccc(C(=O)N[C@@H](CCC(=O)O)C(=O)O)cc1` [methotrexate], the Target organ/organ system entry was “liver”. Consider `[N]=O` [nitric oxide], for which the Target organ/organ system result is recorded as “respiratory system; cardiovascular”. In the case of `Cc1nccn1CC1CCc2c(c3ccccc3n2C)C1=O` (stereo not drawn) [ondansetron], the Target organ/organ system entry was “liver”.

As for `NNc1ccccc1` [phenylhydrazine (phenylhyrzn), phenylhydrazine], the Target organ/organ system result is “liver”. Consider `CC[C@H](C)C(=O)O[C@H]1C[C@H](O)C=C2C=C[C@H](C)[C@H](CC[C@@H](O)C[C@@H](O)CC(=O)O)[C@H]21` [pravastatin], for which the Target organ/organ system entry is on record as “cardiovascular system; liver”. Consider `COc1cc(N)c(Cl)cc1C(=O)NC1CCN(CCCOc2ccc(F)cc2)CC1OC` (stereo not drawn) [propulsid], for which the Target organ/organ system entry is “cardiovascular system”. Consider `CN(C)c1ncnc2c1ncn2[C@@H]1O[C@H](CO)[C@@H](N)[C@H]1O` [puromycin aminonucleoside (PAN), puromycin aminonucleoside], for which the Target organ/organ system result is “liver; kidney”. Take `[F-].[Na+]` [sodium fluoride (NaF), sodium fluoride]: the Target organ/organ system entry is “liver”. Regarding `CC(=N)S` [thioacetamide], the Target organ/organ system entry is “liver; kidney”. On to `Cc1cccc(C)c1NC(=O)C(C)N` (stereo not drawn) [tocainidine], for which the Target organ/organ system entry is listed as “cardiovascular system”. On to `Cc1c(C)c2c(c(C)c1O)CCC(C)(COc1ccc(CC3SC(=O)NC3=O)cc1)O2` (stereo not drawn) [troglitazone], for which the Target organ/organ system result is “liver”. For `CCCC(CCC)C(=O)O` [valproic acid], the Target organ/organ system result is “reproductive system”.

On to `CC[C@]1(O)C[C@H]2CN(CCc3c([nH]c4ccccc34)[C@@](C(=O)OC)(c3cc4c(cc3OC)N(C=O)[C@H]3[C@@](O)(C(=O)OC)[C@H](OC(C)=O)[C@]5(CC)C=CCN6CC[C@]43[C@@H]65)C2)C1` [vincristine], for which the Target organ/organ system entry is listed as “nervous system; cardiovascular system; reproductive”. As for `Cc1cn([C@H]2C[C@H](N=[N+]=[N-])[C@@H](CO)O2)c(=O)[nH]c1=O` [zidovudine (AZT), zidovudine], the Target organ/organ system entry is on record as “blood; liver”. In the case of `S=C=Nc1cccc2ccccc12` [α-naphthyl isothiocyanate (ANIT), α-naphthyl isothiocyanate], the Target organ/organ system result is “liver”. As for `O=c1cc(-c2ccccc2)oc2ccc3ccccc3c12` [β-naphthoflavone (BNF), β-naphthoflavone], the Target organ/organ system result was “liver”. corvastatin: the Target organ/organ system result is on record as “cardiovascular system; liver”. Take “interleukin-6 (IL-6): interleukin-6, listed as a known toxin targeting the liver”: the Target organ/organ system result is “liver”.
